Laboratory results taken from ChEMBL document CHEMBL1201862, “PubChem BioAssay data set” (2004).
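Method: 48-hour compound exposure of cells in 96-well plates, five concentrations, linear interpolation of endpoints. The concentration for 50% growth inhibition is given as GI50.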 Calls of active or inactive are those of the source. No stated cut-off is given here; in the data, active = GI50 up to about 1.1 µM and inactive = higher.

Key:
Assay in all cases: NCI tumour cell line growth inhibition, 48 h
[1] = test system: ACHN
[2] = test system: CCRF-CEM
[3] = test system: DU-145
[4] = test system: EKVX
[5] = test system: HOP-62
[6] = test system: Hs-578T
[7] = test system: IGROV-1
[8] = test system: MCF7
[9] = test system: MDA-MB-435
[10] = test system: MDA-N
[11] = test system: NCI-H460
[12] = test system: OVCAR-8
[13] = test system: RPMI-8226
[14] = test system: SF-295
[15] = test system: TK-10
[16] = test system: U-251
[17] = test system: UACC-257
[18] = test system: A498

Measured: GI50

CC1(C)NC(C)(C)/C(=N\O)C(=NO)/C1=N/O
inactive: [1] > 100 µM | [2] > 100 µM | [3] > 100 µM | [4] > 100 µM | [5] > 100 µM | [6] > 100 µM | [7] > 100 µM | [8] > 100 µM | [9] > 100 µM | [10] > 100 µM | [11] > 100 µM | [12] > 100 µM | [13] > 100 µM | [14] > 100 µM | [15] > 100 µM | [16] > 100 µM | [17] > 100 µM

CN(c1ccc(Cl)cc1)S(=O)(=O)c1ccc([N+](=O)[O-])cc1
inactive: [1] > 100 µM | [2] > 100 µM | [3] > 100 µM | [4] > 100 µM | [5] > 100 µM | [6] > 100 µM | [7] > 100 µM | [8] > 100 µM | [9] > 100 µM | [10] > 100 µM | [11] > 100 µM | [12] > 100 µM | [13] > 100 µM | [14] > 100 µM | [15] > 100 µM | [16] > 100 µM | [17] > 100 µM

CCCCCCCCCCCCCCCCCc1nc(Cl)nc(Cl)c1Cl
inactive: [1] > 100 µM | [2] 34.8 µM | [3] > 100 µM | [5] > 100 µM | [6] > 100 µM | [7] > 100 µM | [8] > 100 µM | [9] > 100 µM | [10] > 100 µM | [11] > 100 µM | [12] > 100 µM | [13] 24.4 µM | [14] > 100 µM | [15] > 100 µM | [16] > 100 µM

CN(C)c1ccc(/C=C2\Oc3ccccc3C2=O)cc1
inactive: [1] > 100 µM | [2] > 100 µM | [3] > 100 µM | [4] > 100 µM | [5] > 100 µM | [6] 22.5 µM | [7] > 100 µM | [8] 54.1 µM | [9] 56.8 µM | [10] 34.8 µM | [11] > 100 µM | [12] > 100 µM | [13] > 100 µM | [14] > 100 µM | [15] > 100 µM | [16] > 100 µM | [17] > 100 µM

OC1(C(O)(c2ccc(-c3ccccc3)cc2)c2ccc(-c3ccccc3)cc2)CCCCC1
inactive: [18] > 100 µM | [1] > 100 µM | [3] > 100 µM | [4] > 100 µM | [5] > 100 µM | [6] > 100 µM | [7] > 100 µM | [8] 96.8 µM | [9] > 100 µM | [10] > 100 µM | [11] 44 µM | [12] > 100 µM | [13] > 100 µM | [14] > 100 µM | [15] > 100 µM | [16] > 100 µM | [17] > 100 µM

COc1cc(C/C=C/c2ccccc2)c(OC)cc1O [VIOLASTYRENE]
inactive: [18] 80.4 µM | [1] 23.6 µM | [2] 17.1 µM | [3] 17.3 µM | [4] 18.1 µM | [6] 30.8 µM | [7] 18.3 µM | [9] 18.5 µM | [10] 17.9 µM | [11] 20.3 µM | [12] 12.6 µM | [13] 15.6 µM | [15] 18.8 µM | [16] 18.7 µM | [17] 29.4 µM

Cc1nc2ccc(F)cc2c2c1CCO2
inactive: [18] > 100 µM | [1] > 100 µM | [2] > 100 µM | [3] > 100 µM | [4] 39.7 µM | [6] > 100 µM | [7] > 100 µM | [9] 70.1 µM | [10] 27.7 µM | [11] 61.1 µM | [12] > 100 µM | [13] 80 µM | [14] > 100 µM | [15] > 100 µM | [16] 66.2 µM | [17] > 100 µM

Cc1nnc2nc(-c3ccc(Cl)cc3Cl)cc(-c3ccc(Cl)cc3)n12
inactive: [1] > 100 µM | [2] > 100 µM | [3] > 100 µM | [5] > 100 µM | [6] > 100 µM | [8] 31 µM | [9] > 100 µM | [10] > 100 µM | [11] 82.6 µM | [12] > 100 µM | [13] 35.6 µM | [14] 91.4 µM | [15] > 100 µM | [16] > 100 µM | [17] > 100 µM

CC(=O)N(C)c1ccc(Nc2ccnc3ccc4nn(C)nc4c23)cc1
inactive: [1] 13.7 µM | [2] 17.3 µM | [3] 28.6 µM | [4] 24.3 µM | [5] 26 µM | [6] 17.3 µM | [8] 13.4 µM | [9] 39.3 µM | [10] 36.1 µM | [12] 36.1 µM | [13] 20.3 µM | [14] 21.8 µM | [15] 22.3 µM | [16] 33.5 µM | [17] 21.7 µM

N#CC(C(=O)O)C(c1c(Cl)cccc1Cl)C(C#N)C(=O)O (centres undefined)
inactive: [18] > 100 µM | [1] > 100 µM | [3] > 100 µM | [4] > 100 µM | [5] > 100 µM | [6] > 100 µM | [7] > 100 µM | [8] > 100 µM | [9] > 100 µM | [10] > 100 µM | [11] > 100 µM | [12] > 100 µM | [13] > 100 µM | [14] > 100 µM | [15] > 100 µM | [16] > 100 µM | [17] > 100 µM

CC(=O)OC1C(O)COC(O[C@H]2CC[C@]34C[C@]35CC[C@]3(C)C([C@@]6(C)CC[C@@H](C(C)(C)O)O6)[C@@H](O)C[C@@]3(C)C5C[C@H](OC3OCC(O)C(O)C3O)[C@H]4C2(C)C)C1OC1OCC(O)C(O)C1O (some centres undefined)
inactive: [18] > 100 µM | [1] > 100 µM | [3] > 100 µM | [4] > 100 µM | [5] > 100 µM | [6] > 100 µM | [7] > 100 µM | [8] > 100 µM | [9] > 100 µM | [10] > 100 µM | [11] > 100 µM | [12] > 100 µM | [13] > 100 µM | [14] > 100 µM | [15] > 100 µM | [16] > 100 µM | [17] > 100 µM

CC(C)(C)O/N=C/c1cc(NC(=S)c2ccsc2)ccc1Cl
inactive: [18] 10.5 µM | [2] 10.7 µM | [3] 5.37 µM | [4] 11.9 µM | [5] 16 µM | [6] 23.3 µM | [7] 16.7 µM | [8] 11.2 µM | [9] 14.6 µM | [10] 15.2 µM | [12] 13.1 µM | [13] 2.75 µM | [14] 11.6 µM | [15] 13.7 µM | [16] 15.7 µM | [17] 12.6 µM
